In patent publication US9034922B2, “Composition for maintaining function of platelets” (THE UNIVERSITY OF TOKYO, priority 2010, dated 2015):

How the values were obtained:
[1] = target: T1, ADAM17 (Homo sapiens, UniProt P78536); test: ADAM17 inhibition experiment (fluorescent synthetic substrate); assay type: biochemical; details: from Table 3
T1 construct: made in house; host or cells: mammalian cells or insect cells
Description: The cDNA was incorporated into an expression vector. Then, this vector was transfected into mammalian cells or insect cells, and ADAM17 was expressed and obtained.
Next, the activity of ADAM17 was measured, as follows in the presence or absence of the test substances, in which obtained ADAM17 was used as an enzyme, and a fluorescent synthetic substrate Nma (N-methyl anthranilate)-[…]Dnp (dinitrophenyl)-D-Arg-NH2 containing an ADAM17-cleavage sequence of membrane-bound TNF was used as a substrate.
Specifically, 90 μL of 14 units of an enzyme solution (1 unit is defined as an amount of enzyme degrading […] of the substrate in 1 minute at 25° C.) prepared with Assay Buffer A (50 mmol/L Tris-HCl buffer (pH 7.5) containing 200 mmol/L sodium chloride, 5 mmol/L calcium chloride, 10 μmol/L zinc sulfate, and 2 mg/mL bovine serum albumin) was mixed with 90 μL of the fluorescent synthetic substrate adjusted to be 20 μmol/L with Assay Buffer B (50 mmol/L Tris-HCl buffer (pH 7.5) containing 200 mmol/L sodium chloride, 5 mmol/L calcium chloride, 10 μmol/L zinc sulfate, and 0.05% PLURONIC F-68), and allowed for reaction at 37° C. for 1.5 hours. Thereafter, the enzyme activity was determined by measurement using a fluorometer (Fluoroskan Ascent) under conditions of an excitation wavelength of 355 nm and a measurement wavelength of 460 nm. Then, an inhibition rate was obtained based on the enzyme activities in the presence and absence of the test compounds, and the 50% inhibitory concentration (IC50) was calculated.
A disintegrin and metalloproteinase 17 (ADAM17, TACE) (used was one prepared at Kaken Pharmaceutical Co., Ltd. by employing the genetic recombination in the same way as in Test Example 3. Note that, the same as in Test Example 3, 1 unit is defined as an amount of enzyme degrading 1 pmol of substrate in 1 minute at 25° C.)
TACE substrate (the same as one used in Test Example 3): excitation wavelength at 355 nm, emission wavelength at 460 nm
(§1) The enzyme reaction was carried out using the enzymes and substrates. Specifically, if necessary, the enzyme was activated in advance with APMA (final concentration 1 mmol/L, p-aminophenylmercuric acetate, manufactured by Sigma-Aldrich Co., A9563) according to information from the manufacturer. Then, in a 96-well plate for fluorescence measurement, 90 μL of an enzyme solution prepared with Assay Buffer A (50 mmol/L Tris-HCl buffer (pH 7.5) containing 200 mmol/L sodium chloride, 5 mmol/L calcium chloride, 10 μmol/L zinc sulfate, and 2 mg/mL bovine serum albumin) was mixed with 90 μL of the substrate adjusted to be 20 μmol/L with Assay Buffer B (50 mmol/L Tris-HCl buffer (pH 7.5) containing 200 mmol/L sodium chloride, 5 mmol/L calcium chloride, 10 μmol/L zinc sulfate, and 0.05% PLURONIC F-68), and incubated for reaction at 25° C. or 37° C. for several hours. Moreover, the fluorescence intensities before and after the reaction were measured using a fluorometer to determine the enzyme activity. An inhibition rate was obtained based on the enzyme activities in the presence and absence of the test substances, and the 50% inhibitory concentration (IC50) was calculated.

[2] = target: T2, Matrix metalloproteinase 1 (MMP-1) (Homo sapiens, UniProt P03956); test: Enzyme inhibition experiment, MMP-1; assay type: biochemical; details: 444221 substrate, 37° C., 5 hours
T2 construct: purchased Calbiochem 444208
T2 sequence (P03956 100-469): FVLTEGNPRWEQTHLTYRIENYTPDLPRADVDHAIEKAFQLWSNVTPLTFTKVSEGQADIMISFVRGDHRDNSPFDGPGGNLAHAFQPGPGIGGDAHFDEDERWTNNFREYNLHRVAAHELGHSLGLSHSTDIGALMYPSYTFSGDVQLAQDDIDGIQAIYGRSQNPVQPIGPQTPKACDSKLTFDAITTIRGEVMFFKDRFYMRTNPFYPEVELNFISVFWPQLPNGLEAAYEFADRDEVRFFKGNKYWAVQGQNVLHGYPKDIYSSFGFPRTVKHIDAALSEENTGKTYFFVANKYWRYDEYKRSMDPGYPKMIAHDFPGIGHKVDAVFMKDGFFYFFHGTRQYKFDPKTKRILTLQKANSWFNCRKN
Description: as §1

[3] = test system: iPS cell-derived platelets (ADAM17-mediated GPIbα shedding); test: Function-maintaining effect on iPS cell-derived platelets in culture system (flow cytometry CD41/CD42b, platelet count); assay type: cell-based, human; details: Test Example 7, 8 days
Excerpt: As human iPS cells (hiPS cells), an iPS cell line (TkDA3-4) established at the University of Tokyo by introducing Oct4, Klf4, Sox2, and c-Myc into human-derived skin cells was also used). […] The cells were subcultured for every 3 days, and those keeping an undifferentiated state were used.
Thereby, megakaryocytes/platelets were induced.

[4] = test system: human peripheral blood platelets adhering to VWF; test: Adhesion ability of platelets to VWF-coated flow chamber; assay type: cell-based; details: Test Example 15; platelets incubated with 15 μM S-45457 and 100 μM CCCP, 37° C., 24 hours; wall shear rate 1500 S^−1
Description: Then, the supernatant was removed. The precipitate thus obtained was suspended in a Tyrode HEPES Ca(−) buffer, added with 100 μM CCCP and simultaneously added with one of either DMSO or 15 μM S-45457 and followed by incubation at 37° C. for 24 hours. Note that, in this experiment, one obtained by adding CCCP and DMSO and the subsequent incubation was prepared as a negative control, while one obtained without the addition or the incubation treatments was prepared as a positive control.
Further, after the incubation (in the case of the positive control, without incubation), the suspension was added with TMRE (tetramethylrhodamine ethyl ester perchlorate) having been diluted to 1/2000 and incubated at room temperature for 15 minutes to label the platelets with fluorescence. […]
Next, each of fluorescence-labelled platelet samples was added to and mixed with a whole blood sample of collected human peripheral blood anticoagulated with argatroban (thrombin inhibitor) so that the number of platelets of the fluorescence-labelled platelet sample was 10% of the whole blood platelets. […] The fluorescence-labelled platelets which formed a thrombus were visualized using an inverted stage epifluorescence video microscope system (DM IRB, manufactured by Leica). […] Further, a percentage of surface area covered by platelets was calculated using Image-J software (NIH Image). […]

T1 sequence (P78536 215-824): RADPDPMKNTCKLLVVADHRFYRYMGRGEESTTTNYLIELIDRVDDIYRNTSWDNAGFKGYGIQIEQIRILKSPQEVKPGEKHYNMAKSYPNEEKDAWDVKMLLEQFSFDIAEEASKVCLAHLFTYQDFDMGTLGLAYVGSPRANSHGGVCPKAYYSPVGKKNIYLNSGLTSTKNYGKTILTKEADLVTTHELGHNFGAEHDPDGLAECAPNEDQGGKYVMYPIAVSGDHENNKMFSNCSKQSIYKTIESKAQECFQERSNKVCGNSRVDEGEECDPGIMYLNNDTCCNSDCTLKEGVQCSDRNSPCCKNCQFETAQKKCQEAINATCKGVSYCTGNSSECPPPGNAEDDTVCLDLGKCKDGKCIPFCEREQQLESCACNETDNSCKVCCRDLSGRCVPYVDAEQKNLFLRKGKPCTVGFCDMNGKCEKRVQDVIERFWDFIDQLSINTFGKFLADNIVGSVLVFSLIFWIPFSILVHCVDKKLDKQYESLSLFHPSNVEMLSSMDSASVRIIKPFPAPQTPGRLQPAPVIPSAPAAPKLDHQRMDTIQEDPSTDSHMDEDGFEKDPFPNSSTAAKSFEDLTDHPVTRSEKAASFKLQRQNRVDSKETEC

Compound	specificity to ADAM17 in comparison with metalloproteinases other than ADAM17 [1]	IC50 [2] [µM]	toxicity to cells (total number of platelets) ([3]; iPS cells and differentiated cells, 1.5 to 50 μM)	concentration dependency of inhibition of GPIbα shedding ([3]; iPS cells, S-45457 1.5 to 50 μM)	percentage of surface area covered by platelets [4]
CC#CCOc1ccc(S(=O)(=O)CC(c2ccc(CN(CC)CC)cc2)N(O)C=O)cc1 (stereo not shown) [Compound I-1, N-[2-(4-But-2-ynyloxybenzenesulfonyl)-1-(4-diethylaminomethylphenyl)ethyl]-N-hydroxyformamide]	high specificity to ADAM17	> 100	–	–	–
CC#CCOc1ccc(S(=O)(=O)CC(c2ccc(CNS(C)(=O)=O)cc2)N(O)C=O)cc1 (stereo not shown) [Compound I-4, N-{4-[2-(4-But-2-ynyloxybenzenesulfonyl)-1-(formylhydroxyamino)ethyl]benzyl}methanesulfonamide]	high specificity to ADAM17	> 100	low toxicity	inhibit ADAM17-mediated GPIbα shedding in a manner dependent on the added concentration	high percentage of surface area covered by the platelets in comparison with the result of the negative control
